# Measurements published in the kinase profiling compilation of Christmann-Franck et al. (2016).
# Legend:
# Assay in all cases: KINOMEscan competition binding
# Settings in all cases: compound 10.0 µM
# PDPK1 (human) = PDPK1 (human) (UniProt O15530)
# ERN1 (human) = ERN1 (human) (UniProt O75460)
# HCK (human) = HCK (human) (UniProt P08631)
# INSR (human) = INSR (human) (UniProt P06213)
# CDK11B (human) = CDK11B (human) (UniProt P21127)
# RIOK2 (human) = RIOK2 (human) (UniProt Q9BVS4)
# AAK1 (human) = AAK1 (human) (UniProt Q2M2I8)
# MAPK10 (human) = MAPK10 (human) (UniProt P53779)
# ZAP70 (human) = ZAP70 (human) (UniProt P43403)
# MAP2K1 (human) = MAP2K1 (human) (UniProt Q02750)
# SRC (human) = SRC (human) (UniProt P12931)
# PDGFRB (human) = PDGFRB (human) (UniProt P09619)
# TGFBR1 (human) = TGFBR1 (human) (UniProt P36897)
# ERBB2 (human) = ERBB2 (human) (UniProt P04626)
# PTK2 (human) = PTK2 (human) (UniProt Q05397)
# FLT3 (human) = FLT3 (human) (UniProt P36888)
# MAP4K1 (human) = MAP4K1 (human) (UniProt Q92918)
# MAP3K5 (human) = MAP3K5 (human) (UniProt Q99683)
# CDK7 (human) = CDK7 (human) (UniProt P50613)
# MET (human) = MET (human) (UniProt P08581)
# [1] = system: ABL1 (human), P00519 [T315I]
# ACVR1B (human) = ACVR1B (human) (UniProt P36896)
# IKBKB (human) = IKBKB (human) (UniProt O14920)
# TLK1 (human) = TLK1 (human) (UniProt Q9UKI8)
# RPS6KB1 (human) = RPS6KB1 (human) (UniProt P23443)
# CDK19 (human) = CDK19 (human) (UniProt Q9BWU1)
# STK25 (human) = STK25 (human) (UniProt O00506)
# CDK3 (human) = CDK3 (human) (UniProt Q00526)
# GAK (human) = GAK (human) (UniProt O14976)
# GRK1 (human) = GRK1 (human) (UniProt Q15835)
# [2] = system: BRAF (human), P15056 [V600E]
# STK17A (human) = STK17A (human) (UniProt Q9UEE5)
# RET (human) = RET (human) (UniProt P07949)
# CASK (human) = CASK (human) (UniProt O14936)
# CSNK1D (human) = CSNK1D (human) (UniProt P48730)
# PKN1 (human) = PKN1 (human) (UniProt Q16512)
# NEK6 (human) = NEK6 (human) (UniProt Q9HC98)
# MAP2K2 (human) = MAP2K2 (human) (UniProt P36507)
# PIK3CA (human) = PIK3CA (human) (UniProt P42336)
# BTK (human) = BTK (human) (UniProt Q06187)
# [3] = biological target: JAK3 JH1 catalytic (human) (UniProt P52333)
# Sequence of STK17A (human) (Q9UEE5 whole entry, looked up): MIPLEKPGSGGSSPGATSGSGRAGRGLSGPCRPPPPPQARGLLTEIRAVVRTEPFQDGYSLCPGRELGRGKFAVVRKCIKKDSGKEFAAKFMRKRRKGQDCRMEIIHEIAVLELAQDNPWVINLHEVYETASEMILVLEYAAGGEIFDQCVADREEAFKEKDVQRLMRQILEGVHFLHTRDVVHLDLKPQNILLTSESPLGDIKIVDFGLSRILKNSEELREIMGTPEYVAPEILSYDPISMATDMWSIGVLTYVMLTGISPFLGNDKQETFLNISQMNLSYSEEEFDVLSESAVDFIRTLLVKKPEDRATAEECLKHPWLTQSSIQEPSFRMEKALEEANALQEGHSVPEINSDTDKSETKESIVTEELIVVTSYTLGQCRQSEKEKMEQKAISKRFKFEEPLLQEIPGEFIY
# Sequence of FLT3 (human) (P36888 whole entry, looked up): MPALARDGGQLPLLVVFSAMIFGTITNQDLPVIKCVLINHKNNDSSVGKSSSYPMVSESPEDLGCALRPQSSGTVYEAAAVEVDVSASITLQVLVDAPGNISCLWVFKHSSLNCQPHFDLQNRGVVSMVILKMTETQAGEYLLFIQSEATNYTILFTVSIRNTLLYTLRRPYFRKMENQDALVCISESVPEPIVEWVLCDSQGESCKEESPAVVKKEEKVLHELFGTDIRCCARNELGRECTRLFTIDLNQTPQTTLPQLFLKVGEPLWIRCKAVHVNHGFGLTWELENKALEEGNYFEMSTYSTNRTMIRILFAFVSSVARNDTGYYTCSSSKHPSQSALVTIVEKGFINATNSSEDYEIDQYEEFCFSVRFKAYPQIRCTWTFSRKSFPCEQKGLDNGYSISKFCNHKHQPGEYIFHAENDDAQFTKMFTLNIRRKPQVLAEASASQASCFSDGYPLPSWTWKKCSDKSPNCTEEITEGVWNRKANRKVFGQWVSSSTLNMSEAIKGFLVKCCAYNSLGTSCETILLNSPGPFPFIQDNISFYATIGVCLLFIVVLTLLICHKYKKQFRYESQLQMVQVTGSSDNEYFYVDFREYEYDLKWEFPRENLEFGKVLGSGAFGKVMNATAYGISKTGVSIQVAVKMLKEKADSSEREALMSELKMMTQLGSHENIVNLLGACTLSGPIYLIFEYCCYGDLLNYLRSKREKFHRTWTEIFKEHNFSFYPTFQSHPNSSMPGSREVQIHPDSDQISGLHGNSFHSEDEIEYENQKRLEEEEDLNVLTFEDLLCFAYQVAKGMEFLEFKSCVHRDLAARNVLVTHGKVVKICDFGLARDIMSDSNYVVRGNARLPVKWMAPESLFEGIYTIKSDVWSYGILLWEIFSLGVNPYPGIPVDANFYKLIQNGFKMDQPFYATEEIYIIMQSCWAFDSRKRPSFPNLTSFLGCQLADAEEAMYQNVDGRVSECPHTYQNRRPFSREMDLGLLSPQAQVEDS
# Sequence of INSR (human) (P06213 whole entry, looked up): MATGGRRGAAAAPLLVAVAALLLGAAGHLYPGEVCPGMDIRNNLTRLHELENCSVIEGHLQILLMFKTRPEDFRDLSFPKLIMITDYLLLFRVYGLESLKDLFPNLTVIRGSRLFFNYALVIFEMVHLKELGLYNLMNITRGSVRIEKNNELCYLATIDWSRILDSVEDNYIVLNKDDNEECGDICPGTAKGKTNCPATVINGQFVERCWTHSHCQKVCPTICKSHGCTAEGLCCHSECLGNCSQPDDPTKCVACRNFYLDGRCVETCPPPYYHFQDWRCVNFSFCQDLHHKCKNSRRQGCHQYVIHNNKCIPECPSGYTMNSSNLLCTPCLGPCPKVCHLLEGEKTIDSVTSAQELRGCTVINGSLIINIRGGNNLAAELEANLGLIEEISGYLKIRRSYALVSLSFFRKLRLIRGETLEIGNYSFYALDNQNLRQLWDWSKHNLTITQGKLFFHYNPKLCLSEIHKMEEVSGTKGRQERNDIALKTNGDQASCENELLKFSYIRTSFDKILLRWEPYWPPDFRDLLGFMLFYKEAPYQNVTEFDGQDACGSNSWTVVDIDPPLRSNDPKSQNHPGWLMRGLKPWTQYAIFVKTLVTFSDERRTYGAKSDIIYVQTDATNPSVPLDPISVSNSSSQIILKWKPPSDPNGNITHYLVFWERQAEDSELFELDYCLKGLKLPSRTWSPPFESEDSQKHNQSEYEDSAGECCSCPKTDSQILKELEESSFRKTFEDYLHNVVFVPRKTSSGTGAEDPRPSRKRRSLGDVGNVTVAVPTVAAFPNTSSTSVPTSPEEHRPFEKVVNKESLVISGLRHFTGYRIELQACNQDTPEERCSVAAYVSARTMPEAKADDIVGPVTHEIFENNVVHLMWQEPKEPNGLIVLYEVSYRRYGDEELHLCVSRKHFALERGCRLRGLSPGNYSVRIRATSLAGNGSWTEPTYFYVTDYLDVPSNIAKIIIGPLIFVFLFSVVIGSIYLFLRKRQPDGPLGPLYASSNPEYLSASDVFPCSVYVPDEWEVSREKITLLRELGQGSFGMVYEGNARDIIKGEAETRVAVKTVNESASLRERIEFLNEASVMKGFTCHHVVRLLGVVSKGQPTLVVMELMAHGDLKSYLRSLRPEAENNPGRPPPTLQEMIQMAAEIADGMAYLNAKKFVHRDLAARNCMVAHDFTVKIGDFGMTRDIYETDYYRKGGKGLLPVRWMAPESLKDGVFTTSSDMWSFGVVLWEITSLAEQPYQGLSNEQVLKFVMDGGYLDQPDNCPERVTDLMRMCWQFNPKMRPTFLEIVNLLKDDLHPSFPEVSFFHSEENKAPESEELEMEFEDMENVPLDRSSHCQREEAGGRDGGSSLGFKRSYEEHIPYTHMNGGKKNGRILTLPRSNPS
# Sequence of RET (human) (P07949 whole entry, looked up): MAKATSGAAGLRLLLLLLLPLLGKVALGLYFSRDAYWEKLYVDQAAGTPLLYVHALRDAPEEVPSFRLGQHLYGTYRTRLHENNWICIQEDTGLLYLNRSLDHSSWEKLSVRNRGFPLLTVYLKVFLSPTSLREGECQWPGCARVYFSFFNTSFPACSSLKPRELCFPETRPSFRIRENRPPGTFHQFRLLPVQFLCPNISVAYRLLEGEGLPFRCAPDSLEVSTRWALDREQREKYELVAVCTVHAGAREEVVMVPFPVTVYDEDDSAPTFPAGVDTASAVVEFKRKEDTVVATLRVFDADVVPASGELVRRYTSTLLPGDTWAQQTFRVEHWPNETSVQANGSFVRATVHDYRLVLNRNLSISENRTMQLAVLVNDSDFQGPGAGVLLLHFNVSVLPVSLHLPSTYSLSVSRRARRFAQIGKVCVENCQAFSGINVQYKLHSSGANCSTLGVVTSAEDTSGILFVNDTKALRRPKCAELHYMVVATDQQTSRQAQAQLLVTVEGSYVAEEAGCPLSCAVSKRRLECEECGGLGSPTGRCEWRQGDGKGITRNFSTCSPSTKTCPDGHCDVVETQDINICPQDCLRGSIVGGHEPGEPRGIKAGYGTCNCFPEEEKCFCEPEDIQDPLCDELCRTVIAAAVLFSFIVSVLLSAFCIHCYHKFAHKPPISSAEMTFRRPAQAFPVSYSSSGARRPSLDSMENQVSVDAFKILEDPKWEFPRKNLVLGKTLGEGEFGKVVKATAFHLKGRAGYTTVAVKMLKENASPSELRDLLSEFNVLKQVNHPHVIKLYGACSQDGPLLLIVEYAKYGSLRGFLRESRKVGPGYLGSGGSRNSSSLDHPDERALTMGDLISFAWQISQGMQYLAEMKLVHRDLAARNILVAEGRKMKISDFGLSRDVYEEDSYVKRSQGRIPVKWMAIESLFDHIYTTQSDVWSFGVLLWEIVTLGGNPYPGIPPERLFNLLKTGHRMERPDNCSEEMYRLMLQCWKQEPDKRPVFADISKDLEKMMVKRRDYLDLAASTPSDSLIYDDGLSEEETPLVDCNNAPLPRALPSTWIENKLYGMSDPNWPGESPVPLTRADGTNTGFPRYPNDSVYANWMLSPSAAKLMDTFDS
# Sequence of ERN1 (human) (O75460 whole entry, looked up): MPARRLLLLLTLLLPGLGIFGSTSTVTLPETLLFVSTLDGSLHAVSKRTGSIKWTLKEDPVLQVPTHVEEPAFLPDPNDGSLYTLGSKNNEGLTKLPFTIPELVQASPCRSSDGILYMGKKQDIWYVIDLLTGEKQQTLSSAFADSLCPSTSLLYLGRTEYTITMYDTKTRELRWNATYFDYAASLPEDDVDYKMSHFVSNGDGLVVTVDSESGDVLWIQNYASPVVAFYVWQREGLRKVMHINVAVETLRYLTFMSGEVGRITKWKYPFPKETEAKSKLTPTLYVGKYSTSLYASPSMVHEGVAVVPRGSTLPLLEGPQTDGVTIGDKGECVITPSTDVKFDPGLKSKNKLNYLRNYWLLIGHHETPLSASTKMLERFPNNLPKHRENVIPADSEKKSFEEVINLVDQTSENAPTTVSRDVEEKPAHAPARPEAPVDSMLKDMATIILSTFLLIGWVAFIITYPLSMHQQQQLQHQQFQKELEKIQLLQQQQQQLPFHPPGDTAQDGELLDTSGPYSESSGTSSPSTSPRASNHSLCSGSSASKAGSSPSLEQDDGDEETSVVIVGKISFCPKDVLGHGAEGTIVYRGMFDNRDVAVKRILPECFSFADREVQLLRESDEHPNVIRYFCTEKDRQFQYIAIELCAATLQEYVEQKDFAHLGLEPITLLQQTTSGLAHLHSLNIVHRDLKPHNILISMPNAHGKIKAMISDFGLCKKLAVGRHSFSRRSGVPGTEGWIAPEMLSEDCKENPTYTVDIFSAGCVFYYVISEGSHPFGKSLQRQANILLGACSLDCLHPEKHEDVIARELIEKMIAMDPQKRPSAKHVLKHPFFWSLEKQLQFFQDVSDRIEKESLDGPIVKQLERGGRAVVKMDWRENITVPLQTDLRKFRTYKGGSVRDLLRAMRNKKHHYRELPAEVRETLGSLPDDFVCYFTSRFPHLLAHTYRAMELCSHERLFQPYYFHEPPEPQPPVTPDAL
smiles,measurement,setting,value
O=C(Nc1ccc(Oc2ncnc3[nH]ncc23)cc1)Nc1ccc(Cl)c(C(F)(F)F)c1,"kinase still bound, per cent of control",PDPK1 (human),89%
same,"kinase still bound, per cent of control",ERN1 (human),100%
same,"kinase still bound, per cent of control",HCK (human),32%
same,"kinase still bound, per cent of control",INSR (human),84%
same,"kinase still bound, per cent of control",CDK11B (human),69%
same,"kinase still bound, per cent of control",RIOK2 (human),100%
same,"kinase still bound, per cent of control",AAK1 (human),85%
same,"kinase still bound, per cent of control",MAPK10 (human),74%
same,"kinase still bound, per cent of control",ZAP70 (human),100%
same,"kinase still bound, per cent of control",MAP2K1 (human),76%
same,"kinase still bound, per cent of control",SRC (human),70%
same,"kinase still bound, per cent of control",PDGFRB (human),0%
same,"kinase still bound, per cent of control",TGFBR1 (human),93%
same,"kinase still bound, per cent of control",ERBB2 (human),100%
same,"kinase still bound, per cent of control",PTK2 (human),94%
same,"kinase still bound, per cent of control",FLT3 (human),0%
same,"kinase still bound, per cent of control",MAP4K1 (human),61%
same,"kinase still bound, per cent of control",MAP3K5 (human),90%
same,"kinase still bound, per cent of control",CDK7 (human),11%
same,"kinase still bound, per cent of control",MET (human),58%
same,"kinase still bound, per cent of control",[1],46%
same,"kinase still bound, per cent of control",ACVR1B (human),100%
same,"kinase still bound, per cent of control",IKBKB (human),91%
same,"kinase still bound, per cent of control",TLK1 (human),100%
same,"kinase still bound, per cent of control",RPS6KB1 (human),69%
same,"kinase still bound, per cent of control",CDK19 (human),0.35%
same,"kinase still bound, per cent of control",STK25 (human),79%
same,"kinase still bound, per cent of control",CDK3 (human),44%
same,"kinase still bound, per cent of control",GAK (human),90%
same,"kinase still bound, per cent of control",GRK1 (human),89%
same,"kinase still bound, per cent of control",[2],0.55%
same,"kinase still bound, per cent of control",STK17A (human),62%
same,"kinase still bound, per cent of control",RET (human),0%
same,"kinase still bound, per cent of control",CASK (human),20%
same,"kinase still bound, per cent of control",CSNK1D (human),88%
same,"kinase still bound, per cent of control",PKN1 (human),100%
same,"kinase still bound, per cent of control",NEK6 (human),100%
same,"kinase still bound, per cent of control",MAP2K2 (human),60%
same,"kinase still bound, per cent of control",PIK3CA (human),100%
same,"kinase still bound, per cent of control",BTK (human),96%
same,"kinase still bound, per cent of control",[3],75%
